Data published in patent publication US11396513B2, “Compositions for activating pyruvate kinase” (FORMA Therapeutics, Inc., priority 2017, dated 2022).

Assays:
PKR (wild type) = PKR (wild type) (Homo sapiens, UniProt P30613); assay: Luminescence Assay (Kinase Glo Plus), PKR wild type; assay type: biochemical
Procedure: (§1) The ability of compound 1 to activate PKR was determined using the following Luminescence Assay. The effect of phosphorylation of adenosine-5′-diphosphate (ADP) by PKR (wild type) is determined by the Kinase Glo Plus Assay (Promega) in the presence or absence of FBP [D-Fructose-1,6-diphosphate; BOC Sciences, CAS: 81028-91-3] as follows. Unless otherwise indicated, all reagents are purchased from Sigma-Aldrich. All reagents are prepared in buffer containing 50 mM Tris-HC1, 100 mM KC1, 5 mM MgC12, and 0.01% Triton X100, 0.03% BSA, and 1 mM DTT. Enzyme and PEP [Phospho(enol) pyruvic acid] are added at 2× to all wells of an assay-ready plate containing serial dilutions of test compounds or DMSO vehicle. Final enzyme concentrations for PKR(wt), PKR(R510Q), and PKR(G332S) are 0.8 nM, 0.8 nM, and 10 nM respectively. Final PEP concentration is 100 μM. The Enzyme/PEP mixture is incubated with compounds for 30 minutes at RT before the assay is initiated with the addition of 2×ADP [Adenosine-5′-diphosphate] and KinaseGloPlus. Final concentration of ADP is 100 μM. […] For assays containing FBP, that reagent is added at 30 μM upon reaction initiation. Reactions are allowed to progress for 45 minutes at RT until luminescence is recorded by the BMG PHERAstar FS Multilabel Reader. The compound is tested in triplicate at concentrations ranging from 42.5 μM to 2.2 nM in 0.83% DMSO. […]

PKR(G332S) = PKR(G332S) (Homo sapiens, UniProt P30613, G332S); assay: Luminescence Assay (Kinase Glo Plus), G332S PKR mutant; assay type: biochemical; details: G332S PKR mutant 10 nM; PEP 100 μM; ADP 100 μM; four parameter fit; triplicate
Sequence of PKR(G332S) (P30613 whole entry G332S): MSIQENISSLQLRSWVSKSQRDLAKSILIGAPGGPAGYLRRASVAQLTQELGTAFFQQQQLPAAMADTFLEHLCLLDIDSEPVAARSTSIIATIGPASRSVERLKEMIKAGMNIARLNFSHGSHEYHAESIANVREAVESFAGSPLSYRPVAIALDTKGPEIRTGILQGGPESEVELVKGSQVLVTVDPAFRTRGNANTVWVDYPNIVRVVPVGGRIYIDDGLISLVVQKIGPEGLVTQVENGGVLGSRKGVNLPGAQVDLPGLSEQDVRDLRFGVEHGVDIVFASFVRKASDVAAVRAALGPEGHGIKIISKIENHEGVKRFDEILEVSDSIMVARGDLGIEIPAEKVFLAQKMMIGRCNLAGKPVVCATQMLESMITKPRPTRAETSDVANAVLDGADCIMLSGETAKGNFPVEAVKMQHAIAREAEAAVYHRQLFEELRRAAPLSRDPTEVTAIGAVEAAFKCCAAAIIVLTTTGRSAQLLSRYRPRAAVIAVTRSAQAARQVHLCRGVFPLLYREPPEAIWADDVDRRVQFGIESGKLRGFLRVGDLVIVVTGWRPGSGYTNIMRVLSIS
Procedure: as §1

Sequence of PKR (wild type) (P30613 whole entry): as the sequence (P30613 whole entry G332S) above, with S332G counted along it

Structure (SMILES): CC(C)(O)C(=O)N1CC2=C(C1)CN(S(=O)(=O)c1ccc3c(c1)NCCO3)C2 [compound 1, 1-(5-((3,4-Dihydro-2H-benzo[b][1,4]oxazin-6-yl)sulfonyl)-3,4,5,6-tetrahydropyrrolo[3,4-c]pyrrol-2(1H)-yl)-2-hydroxy-2-methylpropan-1-one]
- AC50 (PKR (wild type); Luminescence Assay, PKR form not specified, definition of PKR Activator Compound): < 1 µM
- AC50 (PKR (wild type); PKR wild type enzyme 0.8 nM, PEP 100 μM, ADP 100 μM, four parameter fit, triplicate): 0.1 to 1 µM
- AC50 (PKR(G332S)): 0.1 to 1 µM
